The structures appear in SMILES notation.

Experimental findings from patent publication US12629401B2, “Method for preparing ginseng extract enriched with rare ginsenosides and applications thereof” (priority 2023, dated 2026) are described below.

In this assay the test system is SD1347 nematodes. Put plainly: Mitochondrial health test: muscle fragmentation score by confocal microscopy. The settings on record: 100 μg/mL JadeAging, 11.4 μg/mL urolithin A. In kind it is in vivo, C. hidradenitis elegans nematodes. The text has this: Skeletal sarcopenia is an age-related loss of muscle and strength. Muscle mitochondrial dysfunction is observed at the onset of skeletal sarcopenia, followed by alterations in skeletal muscle segmental architecture, ultimately leading to decreased movement. In recent years, clinical studies have shown that urolithin A improves mitochondrial health and alleviates muscle decline due to aging. In the present study, the fluorescently labeled myocyte nuclei and mitochondria of […] were used to assess whether JadeAging could ameliorate age-related dysfunction.
METHODS: SD1347 C. hidradenitis elegans nematodes were treated with JadeAging and fluorescently labeled with muscle nuclei and mitochondria, and muscle and mitochondrial health were assessed using confocal microscopy on days 2, 9, and 12 of the adult stage of C. hidradenitis elegans. […]
Maximum intensity projected confocal images of adult […] animals on days 2, 9 and 12 are shown in FIG. 11, all images are from the “head” region. Healthy muscles, i.e., those of the blank group (VC group), are marked by arrows in the day 2 images and are uniformly streaked; those of the blank group (VC group) are marked by arrows in the day 12 images and show uneven fluorescence. […]

On to `O=c1oc2cc(O)ccc2c2ccc(O)cc12` [urolithin A], for which the “protective effect against age-related skeletal muscle reduction (mean fragmentation scores)” value (FIG. 13) is on record as “significant protective effect”. In addition, the “mitochondrial health (change of fragmentation score distribution with age)” value (days 2, 9, 12, FIG. 12) is reported as “superior to that of the blank group (VC group)”.
